{"source": "paper PMC9698010", "about": "(Pharmaceutics, 2022)", "key": {"IL-6 [1]": {"test_system": "IL-6", "assay": "LPS-induced inflammation, capsule studies: plasma IL-6", "format": "in vivo, male Lewis rats", "description": "To induce intestinal inflammation, 1 mg/kg LPS was injected intraperitoneally into rats at T5 h, this timing was chosen based on the CT imaging results, to allow capsules to reach the intestines. Inflammation-free control rats were instead intraperitoneally injected with an equal volume of PBS. Controls used in this study were naïve rats (no induction of inflammation, vehicle treatment (PBS)), treatment-free rats (LPS + vehicle (PBS)), and comparative treatment control rats (induction of inflammation, treatment with 1 mg/kg oral dexamethasone solution, formulated in PEG400/polysorbate 80 in deionized water (10/9/81), at T4 h). Animal sacrifice occurred at T8 h (3 h after LPS administration). Terminal plasma and colonic tissue were subsequently excised, and levels of IL-6 quantified using the V-PLEX validated immunoassay kit."}, "IL-6 [2]": {"test_system": "IL-6", "assay": "LPS-induced inflammation, capsule studies: colonic tissue IL-6", "format": "in vivo, male Lewis rats", "details": "1 mg/kg dexamethasone oral; targeted vs untargeted comparison, 8 h analysis"}, "IL-6 [3]": {"test_system": "IL-6", "assay": "LPS-induced inflammation, ascending dose oral solution study: plasma IL-6", "format": "in vivo, male Lewis rats", "details": "1 mg/kg dexamethasone solution, 4 hours after administration", "description": "(§1) Male Lewis rats were fasted overnight before the day of experiment. Rats were chosen as an in vivo model in these experiments as they are commonly used for assessment of IBD investigatory treatments. […] To induce intestinal inflammation, rats were intraperitoneally injected with 1 mg/kg LPS at T1 h. Intraperitoneal injection of LPS is an accepted method for instigating inflammation in rats as pharmacodynamic endpoints. […] Controls used in this study were naïve rats (no induction of inflammation, placebo treatment (PBS)), treatment-free rats (LPS + vehicle (PBS)), and comparative treatment control rats (induction of inflammation, treatment with 1 mg/kg oral dexamethasone solution, formulated in PEG400/polysorbate 80 in deionized water (10/9/81). Rats not treated with LPS were instead injected with the same volume of PBS solution."}, "IL-6 [4]": {"test_system": "IL-6", "assay": "LPS-induced inflammation, ascending dose oral solution study: colonic tissue IL-6", "format": "in vivo, male Lewis rats", "details": "4 hours", "description": "as §1"}, "rat colonic microbiota": {"test_system": "rat colonic microbiota", "assay": "Ex vivo stability of tofacitinib in rat cecal slurry (colonic microbiota)", "format": "in vitro ADME", "details": "1 mg/mL in rat cecal slurry, anaerobic", "protocol": "The cecum of healthy rats (male, n = 6) was obtained shortly following animal sacrifice and transferred to an anaerobic workstation (Electrotek 500TG workstation, Electrotek, West Yorkshire, UK) maintained at 37 °C and 70% relative humidity. The rats’ cecums were opened and fluid was collected using aseptic technique to preserve the fluid’s microbial composition. Next, the fluid was homogenised with basal media (ratio 1:4, composition as used by Hughes et al. [29] at 10,000 rpm and sieved through a mesh with 5 µm aperture.\nSamples were taken at 0, 1, 2, 4, and 6 h and immediately quenched with ice-cold acetonitrile at a ratio of 1:3 to arrest microbial/enzyme activity. Quenched samples were then centrifuged (9600× g, 10 min, 4 °C) and the supernatant was collected for quantification of drug concentration using HPLC.\nA mobile phase consisting of 0.1% phosphoric acid in water (A) and acetonitrile (B) was used via a gradient method, whereby %A: 95 and %B: 5 from 0.0–4.0 min; and %A: 80 and %B: 20 from 4.0–6.0 min. An Agilent Zorbax-Extend C18 column (50 × 4.6 mm, 1.8 μm) (Santa Clara, CA, USA) at 1.8 mL/min, with column temperature equilibrated at 40 ± 2 °C. […] Drug concentration was calculated by comparing the area under the curve (AUC) of the drug’s peak in samples to those produced with a calibration curve."}, "[5]": {"details": "1 and 10 mg/kg tofacitinib solution"}}, "note": "Counter-ions that a name gives are not always drawn."}
{"compound": "C[C@@H]1C[C@H]2[C@@H]3CCC4=CC(=O)C=C[C@]4(C)[C@@]3(F)[C@@H](O)C[C@]2(C)[C@@]1(O)C(=O)CO", "note": "[dexamethasone]", "values": [{"measurement": "plasma IL-6 levels compared to the untreated control", "setting": "IL-6 [1]; 1 mg/kg dexamethasone oral, targeted vs untargeted comparison, 8 h", "result": "significantly reduce"}, {"measurement": "plasma IL-6 compared to the untreated control", "setting": "IL-6 [1]; 1 mg/kg oral dexamethasone solution, dose response study", "result": "lowered"}, {"measurement": "IL-6 concentration in colonic tissue compared to the untreated control", "setting": "IL-6 [2]", "result": "did not significantly alter"}, {"measurement": "IL-6 levels in plasma compared to the LPS + vehicle control", "setting": "IL-6 [3]", "result": "significantly lower"}, {"measurement": "colonic tissue IL-6 compared to the treatment-free control", "setting": "IL-6 [4]; 1 mg/kg dexamethasone", "result": "significantly lowered"}]}
{"compound": "C[C@@H]1CCN(C(=O)CC#N)C[C@@H]1N(C)c1ncnc2[nH]ccc12", "note": "[tofacitinib, Tofacitinib citrate]", "values": [{"measurement": "time stable when delivered to the cecum/colon", "setting": "rat colonic microbiota", "result": "at least 6 h"}, {"measurement": "colonic IL-6 concentrations compared to the naïve rats", "setting": "IL-6 [4]; [5]", "result": "no significant difference"}, {"measurement": "colonic tissue IL-6 compared to 0.1 mg/kg tofacitinib", "setting": "IL-6 [4]; [5]", "result": "significantly lower"}]}
